1 molecule from ChEMBL document CHEMBL3352235, “Design, synthesis and biological evaluation of 17-arylmethylamine-17-demethoxygeldanamycin derivatives as potent Hsp90 inhibitors” (Eur J Med Chem, 2014) can be followed below.

The test system of data set [1] is MDA-MB-231. Briefly: Antitumor activity against human MDA-MB-231 cells xenografted in BALB/c mouse assessed as reduction in tumor weight at 10 mg/kg, iv dosed every 3 days for 15 days. The data set is classed as functional. Conditions: read-out: GI.
Data set [2] relates to Mus musculus. The data set can be described thus: Hepatotoxicity in Kunming mouse assessed as serum ALT level at 10 mg/kg, iv (reference value: 60.7 +/- 6.9 U/L). The data set is classed as toxicity, organism-based. Also on record: dose 10 mg/kg, route intravenous. The settings on record: in vivo.
The subject of data set [3] is Mus musculus. Briefly: Hepatotoxicity in Kunming mouse assessed as serum AST level at 10 mg/kg, iv (reference value: 197.2 +/- 11.2 U/L). The settings on record: in vivo. The class given is toxicity, organism-based. Further details: dose 10 mg/kg, route intravenous.
Data set [4] relates to MDA-MB-231. Briefly: Antitumor activity against human MDA-MB-231 cells xenografted in BALB/c mouse assessed as tumor volume at 10 mg/kg, iv dosed every 3 days for 15 days relative to untreated control. The class given is functional. For orientation: Xenograft models place foreign cells or tissue in a host animal.
Data set [5] deals with MDA-MB-231. The data set can be described thus: cells. The settings on record: Homo sapiens, MDA-MB-231, 72 h.
Description: Cytotoxicity against human MDA-MB-231 cells after 72 hrs by MTT assay
For data set [6], the target named is Heat shock protein HSP 90-alpha (Homo sapiens, UniProt P07900). The data set can be described thus: Displacement of GA-FITC from human recombinant HSP90alpha ATP-binding site by fluorescence polarization assay. For orientation: Fluorescence polarisation rises when a labelled molecule tumbles more slowly, as on binding a larger partner.
The test system of the next data set is LNCaP. Briefly: cells. The settings on record: Homo sapiens, 72 h.

Broadly, the T/C is the result in the treated group divided by that in the control group, in per cent. A word on the IC50: it is the concentration that inhibits the measured activity by half.

Description for LNCaP: Cytotoxicity against human LNCAP cells after 72 hrs by MTT assay

`CO[C@H]1/C=C\C=C(/C)C(=O)NC2=CC(=O)C(NCc3ccc(Cl)nc3)=C(C[C@@H](C)C[C@H](OC)[C@H](O)[C@@H](C)/C=C(\C)[C@@H]1OC(N)=O)C2=O`: the inhibition in vivo at 10 mg/kg in the data set on MDA-MB-231 [1] is 50%. For the same molecule, the Activity in the data set on Mus musculus [2] worked out at 79.4 U/L; in the data set with Mus musculus [3] it was 173.6 U/L. In addition, the T/C in the data set with MDA-MB-231 [4] turned out to be 40%. The values for the IC50 (with MDA-MB-231 [5]; in data set [6]; with LNCaP) were 80 nM, 1040 nM and 510 nM, respectively.
